Reference: US11014911B2, “CDK2 inhibitors” (Pfizer Inc., priority 2019, dated 2021)

Tests used:
GSK3β (H350L) = GSK3β (H350L) (Homo sapiens (Human), UniProt P49841); settings: read-out: GSK3β Ki
Experimental: The assay was initiated with the addition of ATP, following 15 minutes pre-incubation of enzyme and inhibitor at room temperature in the reaction mixture. The reaction was stopped after 30 minutes at room temperature by the addition of 50 μL of 80 mM EDTA.

[1] = target: CDK2/Cyclin E1 full length (Homo sapiens (Human), UniProt P24941); experiment: CDK2/Cyclin E1 full length mobility shift assay; assay type: biochemical

GSK3β (H350L), sequence (P49841 whole entry, stated change not applied): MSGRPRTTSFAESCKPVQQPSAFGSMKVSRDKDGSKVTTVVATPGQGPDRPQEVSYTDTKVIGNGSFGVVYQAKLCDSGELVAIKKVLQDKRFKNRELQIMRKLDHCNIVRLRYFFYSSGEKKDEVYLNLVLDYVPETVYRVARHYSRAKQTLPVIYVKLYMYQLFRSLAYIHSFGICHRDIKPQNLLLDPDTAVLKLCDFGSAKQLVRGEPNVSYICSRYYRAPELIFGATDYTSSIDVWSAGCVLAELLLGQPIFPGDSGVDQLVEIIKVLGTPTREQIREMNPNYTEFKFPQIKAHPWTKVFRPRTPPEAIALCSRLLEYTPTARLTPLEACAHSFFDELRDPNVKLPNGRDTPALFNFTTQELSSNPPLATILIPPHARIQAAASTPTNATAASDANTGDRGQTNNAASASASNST

Row | SMILES | Ki (GSK3β (H350L)) [nM] | Ki [1] [nM]
1 | COc1cc(CC(=O)Nc2cc([C@@H]3CC[C@H](OC(=O)N4C[C@H](O)[C@H]4C)C3)[nH]n2)ccn1 [Example 611, (1S,3R)-3-(3-{[(2-methoxypyridin-4-yl)acetyl]amino}-1H-pyrazol-5-yl)cyclopentyl (2R,3S)-3-hydroxy-2-methylazetidine-1-carboxylate] | 13.9 | 1.67
2 | O=C(Cc1cc(F)cc(F)c1)Nc1cc([C@H]2CC[C@@H](OC(=O)NCC(F)F)C2)[nH]n1 [Example 253, (1R,3S)-3-(3-{[(3,5-difluorophenyl)acetyl]amino}-1H-pyrazol-5-yl)cyclopentyl (2,2-difluoroethyl)carbamate] | 28.8 | 1.26
3 | CC(C)NC(=O)O[C@H]1CC[C@@H](c2cc(NC(=O)Cc3cnn(C)c3)n[nH]2)C1 [Example 266, (1S,3R)-3-(3-{[(1-methyl-1H-pyrazol-4-yl)acetyl]amino}-1H-pyrazol-5-yl)cyclopentyl propan-2-ylcarbamate] | 32.6 | 0.39
4 | CCCNC(=O)O[C@H]1CC[C@@H](c2cc(NC(=O)c3ccnc(C)c3)n[nH]2)C1 [Example 170, (1S,3R)-3-(3-{[(2-methylpyridin-4-yl)carbonyl]amino}-1H-pyrazol-5-yl)cyclopentyl propylcarbamate] | > 191 | 1.37
5 | COc1ccc(CC(=O)Nc2cc([C@H]3CC[C@@H](OC(=O)N4C[C@@](C)(O)[C@@H]4C)C3)[nH]n2)cn1 [Example 627, (1R,3S)-3-(3-{[(6-methoxypyridin-3-yl)acetyl]amino}-1H-pyrazol-5-yl)cyclopentyl (2S,3R)-3-hydroxy-2,3-dimethylazetidine-1-carboxylate] | 2.76 | 0.51
6 | CCCNC(=O)O[C@H]1CC[C@@H](c2cc(NC(=O)Cc3ccccc3S(C)(=O)=O)n[nH]2)C1 [Example 203, (1S,3R)-3-[3-({[2-(methylsulfonyl)phenyl]-acetyl}amino)-1H-pyrazol-5-yl]cyclopentyl propylcarbamate] | 34.2 | 0.29
7 | CCCNC(=O)O[C@@H]1CC[C@H](c2cc(NC(=O)Cc3cc(OC)ccc3S(C)(=O)=O)n[nH]2)C1 [Example 213, (1R,3S)-3-[3-({[5-methoxy-2-(methylsulfonyl)phenyl]acetyl}amino)-1H-pyrazol-5-yl]cyclopentyl propylcarbamate] | 183 | 0.32
8 | CC[C@H](C)NC(=O)O[C@@H]1CC[C@H](c2cc(NC(=O)Cc3ccc(OC)nc3)n[nH]2)C1 [Example 346, (1R,3S)-3-(3-{[(6-methoxypyridin-3-yl)acetyl]amino}-1H-pyrazol-5-yl)cyclopentyl (2S)-butan-2-ylcarbamate] | 10.7 | 0.26
9 | Cc1cnc(CC(=O)Nc2cc([C@H]3CC[C@@H](OC(=O)N4[C@@H](C)C[C@@H]4C)C3)[nH]n2)o1 [Example 606, (1R,3S)-3-(3-{[(5-methyl-1,3-oxazol-2-yl)acetyl]amino}-1H-pyrazol-5-yl)cyclopentyl (2S,4S)-2,4-dimethylazetidine-1-carboxylate] | 11.5 | 0.63
10 | Cc1cnc(CC(=O)Nc2cc([C@@H]3CC[C@H](OC(=O)NC(C)C)C3)[nH]n2)o1 [Example 270, (1S,3R)-3-(3-{[(5-methyl-1,3-oxazol-2-yl)acetyl]amino}-1H-pyrazol-5-yl)cyclopentyl propan-2-ylcarbamate] | 39.9 | 0.86
11 | COc1cc(CC(=O)Nc2cc([C@H]3CC[C@@H](OC(=O)N4C[C@@H](O)[C@@H]4C)C3)[nH]n2)ccn1 [Example 612, (1R,3S)-3-(3-{[(2-methoxypyridin-4-yl)acetyl]amino}-1H-pyrazol-5-yl)cyclopentyl (2S,3R)-3-hydroxy-2-methylazetidine-1-carboxylate] | 8.01 | 0.45
12 | Cc1ncc(CC(=O)Nc2cc([C@H]3CC[C@@H](OC(=O)N[C@@H]4CCC[C@@H]4C)C3)[nH]n2)s1 [Example 463, (1R,3S)-3-(3-{[(2-methyl-1,3-thiazol-5-yl)acetyl]amino}-1H-pyrazol-5-yl)cyclopentyl [(1R,2S)-2-methylcyclopentyl]carbamate] | 28.3 | 0.55
13 | CCN(C)C(=O)O[C@@H]1CC[C@H](c2cc(NC(=O)Cc3ccc(OC)nc3)n[nH]2)C1 [Example 244, (1R,3S)-3-(3-{[(6-methoxypyridin-3-yl)acetyl]amino}-1H-pyrazol-5-yl)cyclopentyl ethyl(methyl)carbamate] | 3.7 | 0.57
14 | Cn1ccc(CC(=O)Nc2cc([C@H]3CC[C@@H](OC(=O)N4CCCC4(C)C)C3)[nH]n2)n1 [Example 136] | 8.22 | 0.22
15 | CCC(C)(C)NC(=O)O[C@@H]1CC[C@H](c2cc(NC(=O)Cc3cnn(C)c3)n[nH]2)C1 [Example 61] | 42.3 | 0.11
16 | CCNC(=O)O[C@@H]1CC[C@H](c2cc(NC(=O)Cc3ccc(OC)nc3)n[nH]2)C1 [Example 231, (1R,3S)-3-(3-{[(6-methoxypyridin-3-yl)acetyl]amino}-1H-pyrazol-5-yl)cyclopentyl ethylcarbamate] | 15.6 | 1.18
17 | C[C@H]1[C@H](O)CN1C(=O)O[C@@H]1CC[C@H](c2cc(NC(=O)Cc3cc(F)cc(F)c3)n[nH]2)C1 [Example 617, (1R,3S)-3-(3-{[(3,5-difluorophenyl)acetyl]amino}-1H-pyrazol-5-yl)cyclopentyl (2S,3R)-3-hydroxy-2-methylazetidine-1-carboxylate] | 7.18 | 0.27

Row | SMILES | Ki (GSK3β (H350L)) [nM] | Ki [1] [nM]
18 | CC[C@H](C)NC(=O)O[C@@H]1CC[C@H](c2cc(NC(=O)Cc3ccon3)n[nH]2)C1 [Example 323, (1R,3S)-3-{3-[(1,2-oxazol-3-ylacetyl)amino]-1H-pyrazol-5-yl}cyclopentyl (2S)-butan-2-ylcarbamate] | 74.1 | 1.07
19 | C[C@H]1CCCN1C(=O)O[C@@H]1CC[C@H](c2cc(NC(=O)Cc3cnco3)n[nH]2)C1 [Example 629, (1R,3S)-3-{3-[(1,3-oxazol-5-ylacetyl)amino]-1H-pyrazol-5-yl}cyclopentyl (2S)-2-methylpyrrolidine-1-carboxylate] | 10.6 | 0.4
20 | Cc1cc(CC(=O)Nc2cc([C@H]3CC[C@@H](OC(=O)NC(C)(C)C)C3)[nH]n2)on1 [Example 107] | 27.1 | 0.19
21 | CC[C@H](C)NC(=O)O[C@@H]1CC[C@H](c2cc(NC(=O)Cc3cnccn3)n[nH]2)C1 [Example 325, (1R,3S)-3-{3-[(pyrazin-2-ylacetyl)amino]-1H-pyrazol-5-yl}cyclopentyl (2S)-butan-2-ylcarbamate] | 54 | 0.81
22 | CC[C@H](C)NC(=O)O[C@@H]1CC[C@H](c2cc(NC(=O)Cc3ncc(C)o3)n[nH]2)C1 [Example 333, (1R,3S)-3-(3-{[(5-methyl-1,3-oxazol-2-yl)acetyl]amino}-1H-pyrazol-5-yl)cyclopentyl (2S)-butan-2-ylcarbamate] | 63.2 | 0.41
23 | CC[C@H](C)NC(=O)O[C@@H]1CC[C@H](c2cc(NC(=O)Cc3scnc3C)n[nH]2)C1 [Example 342, (1R,3S)-3-(3-{[(4-methyl-1,3-thiazol-5-yl)acetyl]amino}-1H-pyrazol-5-yl)cyclopentyl (2S)-butan-2-ylcarbamate] | 40 | 0.74
24 | CC[C@H](C)NC(=O)O[C@@H]1CC[C@H](c2cc(NC(=O)c3ccnn3CCO)n[nH]2)C1 [Example 53] | 45.7 | 0.1
25 | Cc1cc(CC(=O)Nc2cc([C@H]3CC[C@@H](OC(=O)N4CCCC4(C)C)C3)[nH]n2)on1 [Example 134] | 7.12 | 0.12
26 | CCCNC(=O)O[C@@H]1CC[C@H](c2cc(NC(=O)Cc3cc(OC)ncc3S(C)(=O)=O)n[nH]2)C1 [Example 214, (1R,3S)-3-[3-({[2-methoxy-5-(methylsulfonyl)pyridin-4-yl]acetyl}amino)-1H-pyrazol-5-yl]cyclopentyl propylcarbamate] | 131 | 0.37
27 | CC[C@@H](C)NC(=O)O[C@H]1CC[C@@H](c2cc(NC(=O)Cc3ccno3)n[nH]2)C1 [Example 29] | 19.7 | 0.16
28 | Cc1ccc(CC(=O)Nc2cc([C@@H]3CC[C@H](OC(=O)N[C@H]4CC[C@H](O)CC4)C3)[nH]n2)cn1 [Example 548, (1S,3R)-3-(3-{[(6-methylpyridin-3-yl)acetyl]amino}-1H-pyrazol-5-yl)cyclopentyl (trans-4-hydroxycyclohexyl)carbamate] | 2.1 | 0.39
29 | CC[C@H](C)NC(=O)O[C@@H]1CC[C@H](c2cc(NC(=O)Cc3cc(C)ncc3S(C)(=O)=O)n[nH]2)C1 [Example 373, (1R,3S)-3-[3-({[2-methyl-5-(methylsulfonyl)pyridin-4-yl]acetyl}amino)-1H-pyrazol-5-yl]cyclopentyl (2S)-butan-2-ylcarbamate] | 74.3 | 0.47
30 | CC[C@H](C)NC(=O)O[C@@H]1CC[C@H](c2cc(NC(=O)Cc3ncc(OC)s3)n[nH]2)C1 [Example 353, (1R,3S)-3-(3-{[(5-methoxy-1,3-thiazol-2-yl)acetyl]amino}-1H-pyrazol-5-yl)cyclopentyl (2S)-butan-2-ylcarbamate] | 29.5 | 0.5
31 | CC[C@H](C)NC(=O)O[C@@H]1CC[C@H](c2cc(NC(=O)Cc3ccc(OC)cc3S(C)(=O)=O)n[nH]2)C1 [Example 44] | 47.8 | 0.21
32 | C[C@H]1CCCN1C(=O)O[C@@H]1CC[C@H](c2cc(NC(=O)Cc3ccon3)n[nH]2)C1 [Example 628, (1R,3S)-3-{3-[(1,2-oxazol-3-ylacetyl)amino]-1H-pyrazol-5-yl}cyclopentyl (2S)-2-methylpyrrolidine-1-carboxylate] | 20.8 | 0.92
33 | Cc1cc(CC(=O)Nc2cc([C@H]3CC[C@@H](OC(=O)N4CCC[C@@H]4C)C3)[nH]n2)on1 [Example 632, (1R,3S)-3-(3-{[(3-methyl-1,2-oxazol-5-yl)acetyl]amino}-1H-pyrazol-5-yl)cyclopentyl (2S)-2-methylpyrrolidine-1-carboxylate] | 12.7 | 0.36
